Measured values published in patent US12421535B2, “Biochemically produced sandalwood oil” (FIRMENICH SA, priority 2019, dated 2025).

Legend:
NHDFs fibroblasts = test: Cytotoxicity MTS assay, NHDFs under LPS challenge; format: cell-based, human; details: SDS 0.08%, 26 h
Experimental: (§1) A preliminary study was performed in order to determine the non-cytotoxic working concentrations for both the sandalwood oil of the invention and a reference sandalwood oil. The cell viability was evaluated using the standard MTS assay (3-(4,5-dimethythiazol-2-yl)-5-(3-carboxy-methoxyphenyl)-2-(4-sulfophenyl)-2H-tetrazolium) after treatment with the test ingredients (160-80-40-20-10 μg/ml, tested in triplicate).
(§2) The test was performed both under basal conditions (i.e. without pro-inflammatory challenge) and pro-inflammatory stimuli for either 24 h-72 h or 26 h, respectively. Cells were seeded in 24-wells plates with complete medium, 24 h before treatment.
(§3) Test ingredients were solubilized in solvent (DMSO or ethanol) and applied to the culture medium of cells 2 hours prior to the pro-inflammatory challenge (when required). SDS at 0.008% or 0.08% was used as cytotoxicity positive control to validate the experiment on NHEKs keratinocytes or NHDFs fibroblasts, respectively.
(§4) In order to ensure experiments would be carried out with test composition concentrations that are non-cytotoxic, a cytotoxicity study was performed on NHEK and NHDF after 26 h of treatment (2 h alone and 24 h under inflammatory challenge with LPS for NHDFs fibroblasts and PMA/calcium ionophore or TNF-α for NHEKs). […]

[1] = system: Reconstructed Human Epidermis (RHE); test: Permeability of Reconstructed Human Epidermis, biotin diffusion; format: cell-based
NHEKs keratinocytes = test: Cytotoxicity MTS assay, NHEKs under PMA/calcium ionophore or TNF-α challenge; format: cell-based, human; details: SDS 0.008%, 26 h
Experimental: as §1, §2, §3, §4

NHDF = test: Anti-inflammatory test, cytokine release (ELISA), LPS-challenged fibroblasts; format: cell-based, human; details: LPS 0.5 ug/ml
Experimental: (§5) Monolayer cultures of Normal Human foreskin-derived Dermal Fibroblasts (NHDFs; ATCC, CRL-2522) were used for the anti-inflammatory study. The cells were grown in Dulbecco's Modified Eagle Medium (DMEM, Gibco/Life Technologies, 31885) supplemented with 10% of Foetal Bovine Serum (FBS, Gibco/Life Technologies, 10270) and antibiotics (penicillin/streptomycin, Gibco/Life Technologies, 15140). Monolayer cultures of Normal Human Epidermal Keratinocytes (NHEKs; Lonza, 00192906) were used for the anti-inflammatory study. The cells were grown in Epilife medium containing gentamycin and HKGS (Human Keratinocyte Growth Supplement).
(§6) The cells were maintained in a humidified incubator at 37° C. with a 5% CO2 atmosphere for the indicated treatment periods before performing metabolic, cytokine and gene expression assays.
(§7) Both NHEK and NHDF cell types were cultured in 24-well plates for 24 h in complete medium before being exposed to the test and reference items. Test compositions were applied on the cells 2 h before the 24 h-challenge with pro-inflammatory agents (see table below). Each sample was compared to solvent control conditions. At the end of treatment, all the supernatants were collected and stored at −20° C. until further use in specific ELISA assays for the quantification of the extracellular release of IL-8, IL-6, TNF-α, MCP-1 and CXCL5, based on a standard curve, according to the kits supplier's specifications.
(§8) Sandalwood oil of the invention was tested at 20 μg/ml on both keratinocytes and fibroblasts, in a comparison with S. album essential oil. Keratinocytes and fibroblasts were cultivated under conditions that stimulate the onset of inflammation. After induction of an inflammation state and test compounds application, cell culture supernatants were collected for further ELISA quantification. The ability of the ingredients in reducing the production of selected inflammation markers (MCP-1, CXCL5, IL-6, IL-8 and TNFalpha for NHEK only) was then measured by ELISA (Enzyme-Linked ImmunoSorbent Assay), a biochemical assay commonly used to quantify substances.

NHEK = test: Anti-inflammatory test, cytokine release (ELISA), keratinocytes challenged with TNFα or PMA + A23187; format: cell-based, human; details: for IL-6 % Reduction (vs A23187/EtOH) / IL-6 % Stimulation (vs Untreated) / IL-8 % Reduction (vs PMA + A23187/EtOH) / IL-8 % Stimulation (vs Untreated) / TNFα % Reduction (vs PMA + A23187/EtOH) / TNFα % Stimulation (vs Untreated): PMA 10 ng/ml + A23187 2 uM; for CXCL-5 % Reduction (vs TNFa/EtOH) / CXCL-5 % Stimulation (vs Untreated) / MCP-1 % Reduction (vs TNFa/EtOH) / MCP-1 % Stimulation (vs Untreated): TNFa 50 ng/ml
Experimental: as §5, §6, §7, §8

ticks (Ixodes ricinus) = test: Tick repellency, adapted Warm Plate assay; format: in vivo
Experimental: The repellent effect was determined on ticks (Ixodes ricinus) using an adaptation of the Warm Plate assay as defined in Kröber T, Bourquin M, Guerin P M. A standardised in vivo and in vitro test method for evaluating tick repellents. Pesticide Biochemistry and Physiology. 2013; 107(2):160-168, adapted in reducing the size of the arena and adding a controlled temperature and humid air flow to the set-up.

[2] = system: Reconstructed Human Epidermis (RHE) mimicking sensitive skin; test: Protein expression (immuno-fluorescence) in RHE model mimicking sensitive skin; format: cell-based; details: Cytokine Mix + solvent, 10 uM, 48 h, untreated = 100
Experimental: Human epidermis was reconstituted in vitro as described previously. […] Sandalwood oil of the invention was diluted at 20 μg/ml and 40 μg/ml in culture medium and added together with the cytokine cocktail during the same 48 h. The reference compound GW3965 (10 μM), a synthetic nonsteroidal liver X receptor (LXR) agonist was applied in the culture medium for 48 h as well. Protein levels of loricrin, involucrin and HAS3 were quantified at the end of the treatments by immuno-fluorescence. One section of each sample was dewaxed and rehydrated and the slides were incubated in the presence of the primary antibody specific for each of the 3 target proteins. Fluorescein-conjugated secondary antibodies were then used to detect the primary antibodies. DAPI Slowfade Diamond was used to detect the nuclei of the cells.

**Q.** How did the cell viability (NHDFs fibroblasts) turn out when `CCCCCCCCCCCCOS(=O)(=O)[O-].[Na+]` [SDS] was run?
**A.** strong decrease in cell viability

**Q.** What about the “Surface stained*mean intensity/surface area” value ([1]; 48 h, SDS 0.005%) of the same compound?
**A.** 103

**Q.** What about the “biotin abundance (% relative to untreated)” value ([1]; 48 h, SDS 0.005%, versus untreated) of the same compound?
**A.** 614%

**Q.** And the “barrier function of epidermis” value ([1]; SDS at 0.005%, compared to untreated control)?
**A.** reduced the barrier function

**Q.** What about the cell viability (NHEKs keratinocytes) of the same compound?
**A.** strong decrease in cell viability

**Q.** For `C[C@@H]1C[C@H]2[C@@H]3CCC4=CC(=O)C=C[C@]4(C)[C@@]3(F)[C@@H](O)C[C@]2(C)[C@@]1(O)C(=O)CO` [Dexamethasone], which “CXCL-5 % Reduction (vs LPS/EtOH)” value (NHDF; 10 uM) is on record?
**A.** 77%

**Q.** What about the “CXCL-5 % Stimulation (vs Untreated)” value (NHDF; 10 uM) of the same compound?
**A.** 6414%

**Q.** And the “IL-6 % Reduction (vs LPS/EtOH)” value (NHDF; 10 uM)?
**A.** −70%

**Q.** What about the “IL-6 % Stimulation (vs Untreated)” value (NHDF; 10 uM) of the same compound?
**A.** 6606%

**Q.** What about the “IL-8 % Reduction (vs LPS/EtOH)” value (NHDF; 10 uM) of the same compound?
**A.** −39%

**Q.** And the “IL-8 % Stimulation (vs Untreated)” value (NHDF; 10 uM)?
**A.** 7738%

**Q.** And the “MCP-1 % Reduction (vs LPS/EtOH)” value (NHDF; 10 uM)?
**A.** −23%

**Q.** And the “MCP-1 % Stimulation (vs Untreated)” value (NHDF; 10 uM)?
**A.** 1067%

**Q.** And the “IL-6 % Reduction (vs A23187/EtOH)” value (NHEK; 10 uM)?
**A.** −55%

**Q.** And the “IL-6 % Stimulation (vs Untreated)” value (NHEK; 10 uM)?
**A.** 275%

**Q.** What about the “IL-8 % Reduction (vs PMA + A23187/EtOH)” value (NHEK; 10 uM) of the same compound?
**A.** −25%

**Q.** What about the “IL-8 % Stimulation (vs Untreated)” value (NHEK; 10 uM) of the same compound?
**A.** 14801%

**Q.** What about the “TNFα % Reduction (vs PMA + A23187/EtOH)” value (NHEK; 10 uM) of the same compound?
**A.** −57%

**Q.** And the “TNFα % Stimulation (vs Untreated)” value (NHEK; 10 uM)?
**A.** 33869%

**Q.** What about the “CXCL-5 % Reduction (vs TNFa/EtOH)” value (NHEK; 10 uM) of the same compound?
**A.** 251%

**Q.** And the “CXCL-5 % Stimulation (vs Untreated)” value (NHEK; 10 uM)?
**A.** 1525%

**Q.** What about the “MCP-1 % Reduction (vs TNFa/EtOH)” value (NHEK; 10 uM) of the same compound?
**A.** −53%

**Q.** And the “MCP-1 % Stimulation (vs Untreated)” value (NHEK; 10 uM)?
**A.** 1432%

**Q.** What does the source list for `CCC(C)OC(=O)N1CCCCC1CCO` (centres unmarked) [Picaridin, sec-butyl 2-(2-hydroxyethyl)piperidine-1-carboxylate]?
**A.** % of affected ticks (ticks (Ixodes ricinus); 0.016 mg/mL): 8%; % of affected ticks (ticks (Ixodes ricinus); 0.4 mg/mL): 50%; % of affected ticks (ticks (Ixodes ricinus); 10 mg/mL): 92%

**Q.** Which results are given for `CCN(CC)C(=O)c1cccc(C)c1` [DEET, N,N-diethyl-meta-toluamide]?
**A.** % of affected ticks (ticks (Ixodes ricinus); 0.016 mg/mL): 11%; % of affected ticks (ticks (Ixodes ricinus); 0.4 mg/mL): 20%; % of affected ticks (ticks (Ixodes ricinus); 10 mg/mL): 81%

**Q.** Which “% of affected ticks” value (ticks (Ixodes ricinus); 0.016 mg/mL) does the source give for `CCCCN(CCC(=O)OCC)C(C)=O` [IR3535, Ethyl butylacetylaminopropionate] here?
**A.** 0%

**Q.** And the “% of affected ticks” value (ticks (Ixodes ricinus); 0.4 mg/mL)?
**A.** 33%

**Q.** And the “% of affected ticks” value (ticks (Ixodes ricinus); 10 mg/mL)?
**A.** 56%

**Q.** For `O=C(O)Cc1cccc(OCCCN(Cc2cccc(C(F)(F)F)c2Cl)CC(c2ccccc2)c2ccccc2)c1` [GW3965], which “Hyaluronan synthase 3 (HAS 3) RQ” value [2] is on record?
**A.** 106

**Q.** What about the “Involucrin (IVL) RQ” value [2] of the same compound?
**A.** 160

**Q.** What does the source list for `CC(C)Cc1ccc(C(C)C(=O)O)cc1` (centres unmarked) [Ibuprofen]?
**A.** CXCL-5 % Reduction (vs LPS/EtOH) (NHDF; 100 uM): −19%; CXCL-5 % Stimulation (vs Untreated) (NHDF; 100 uM): 2929%; IL-6 % Reduction (vs LPS/EtOH) (NHDF; 100 uM): −24%; IL-6 % Stimulation (vs Untreated) (NHDF; 100 uM): 16853%; IL-8 % Reduction (vs LPS/EtOH) (NHDF; 100 uM): −14%; IL-8 % Stimulation (vs Untreated) (NHDF; 100 uM): 11037%; MCP-1 % Reduction (vs LPS/EtOH) (NHDF; 100 uM): −4%; MCP-1 % Stimulation (vs Untreated) (NHDF; 100 uM): 1342%; CXCL-5 % Reduction (vs LPS/EtOH) (NHDF; 500 uM): −39%; CXCL-5 % Stimulation (vs Untreated) (NHDF; 500 uM): 2216%; IL-6 % Reduction (vs LPS/EtOH) (NHDF; 500 uM): −46%; IL-6 % Stimulation (vs Untreated) (NHDF; 500 uM): 11977%; IL-8 % Reduction (vs LPS/EtOH) (NHDF; 500 uM): −36%; IL-8 % Stimulation (vs Untreated) (NHDF; 500 uM): 8242%; MCP-1 % Reduction (vs LPS/EtOH) (NHDF; 500 uM): −32%; MCP-1 % Stimulation (vs Untreated) (NHDF; 500 uM): 950%; IL-6 % Reduction (vs A23187/EtOH) (NHEK; 100 uM): −24%; IL-6 % Stimulation (vs Untreated) (NHEK; 100 uM): 462%; IL-8 % Reduction (vs PMA + A23187/EtOH) (NHEK; 100 uM): −19%; IL-8 % Stimulation (vs Untreated) (NHEK; 100 uM): 16034%; TNFα % Reduction (vs PMA + A23187/EtOH) (NHEK; 100 uM): −29%; TNFα % Stimulation (vs Untreated) (NHEK; 100 uM): 55645%; IL-6 % Reduction (vs A23187/EtOH) (NHEK; 500 uM): −67%; IL-6 % Stimulation (vs Untreated) (NHEK; 500 uM): 202%; IL-8 % Reduction (vs PMA + A23187/EtOH) (NHEK; 500 uM): −39%; IL-8 % Stimulation (vs Untreated) (NHEK; 500 uM): 12190%; TNFα % Reduction (vs PMA + A23187/EtOH) (NHEK; 500 uM): −85%; TNFα % Stimulation (vs Untreated) (NHEK; 500 uM): 12099%; secretion levels of mediators of inflammation (NHEK; PMA + A23187 or TNF-α, dexamethasone with the exception of CXCL-5): reduced significantly; CXCL-5 % Reduction (vs TNFa/EtOH) (NHEK; 100 uM): −22%; CXCL-5 % Stimulation (vs Untreated) (NHEK; 100 uM): 337%; MCP-1 % Reduction (vs TNFa/EtOH) (NHEK; 100 uM): −18%; MCP-1 % Stimulation (vs Untreated) (NHEK; 100 uM): 2471%; CXCL-5 % Reduction (vs TNFa/EtOH) (NHEK; 500 uM): −47%; CXCL-5 % Stimulation (vs Untreated) (NHEK; 500 uM): 229%; MCP-1 % Reduction (vs TNFa/EtOH) (NHEK; 500 uM): −63%; MCP-1 % Stimulation (vs Untreated) (NHEK; 500 uM): 1126%
